Data set [1] concerns injured cartilage explants, GAG release. Briefly: drop tower design model: GAG release. Format: cell-based, bovine. The text has this: (§1) The device comprises a vertical rail that guides a sliding weight from 0.1 kg to 3 kg directly onto a force transducer which is situated at the bottom of the device. A sphere-shaped 2 mm indenter resting on a specimen is located at the bottom of the vertical rail. The indenter is held by a stop screw. The specimen is rigidly attached to a tissue holder underneath the indenter, to avoid side movements, the specimen is rigidly attached to the tissue holder. In this manner, the force transducer transduces a force indirectly onto the specimen. Adjusting the weight of a mass and height from which the mass drops varies the magnitude of the intended impact. For example, a weight mass (e.g., […]) held by a weight holder can be released from a height of e.g., 36 cm and dropped onto the force transducer.
Samples for compound evaluation were tested using either of two different methods to induce inflammatory conditions. One method utilized media conditioned from peripheral blood mononuclear cells (PBMCs) stimulated with LPS (“+LPS”) or non-inflammatory media without LPS (“−LPS”). Another method utilized the absence or presence of a cocktail of cytokines.
In the first method, bovine or human PBMCs were freshly prepared using Ficoll gradient by Lampire Biological Laboratories, Inc. PBMCs in RPMI w/10% FCS at delivery were spun down at 1500 rpm for twenty minutes and the cell pellet was washed twice with 1×PBS to wash off the residual Ficoll. The cells were then resuspended at a density of 1×10^6/ml in RPMI supplemented with 10% FCS, 1× Antibiotics-Antimycotics. The suspension was divided into two aliquots. One aliquot was stimulated with 10 μg/ml of LPS and the other was not stimulated. Both aliquots were then incubated at 37° C., 5% CO2 for twenty-four to seventy-two hours. The conditioned media with or without LPS stimulation are collected, aliquoted, and stored in −80° C. for a maximum of three months. Each conditioned medium was assessed for levels of pro-inflammatory cytokines to ensure their secretion from PBMC. A representative cytokine, IL-6, was assayed by ELISA using a Human IL-6 Quantikine kit and it was shown that the LPS-stimulated medium had at least 10 ng/ml of IL-6, while IL-6 was undetectable in the unstimulated medium.
In the second method, the explants were cultured at 37° C., 5% CO2 either in stimulated or non-stimulated conditioned medium as described above or in defined medium containing DMEM supplemented with 1% FCS, 1× insulin-transferrin-sodium selenite media supplement and Antibiotics-Antimycotics in the presence or absence of a cocktail of cytokines containing 10 ng/ml of IL-1β, 100 ng/ml of TNFα and 5 ng/ml of IFN-γ. The compounds were solubilized in H2O, Ethanol or DMSO (10^−2 M) according to suppliers' instructions and further diluted with either conditioned medium stimulated with or without LPS to the required concentrations. DMSO concentrations in the culture media never exceeded 1%. This concentration of DMSO has no effect on cartilage proteoglycan metabolism in response to cytokines. The injured and noninjured cartilage explants were treated with compound-containing medium for three to five days. The specimens were first treated with compounds at desired concentrations at 37° C. for one hour and then incubated for three to five days in the absence or presence of the cocktail of cytokines. At the end of the incubation, media and cartilage samples were harvested and frozen for further analysis.
Glycosaminoglycan (GAG) levels in the culture media or cartilage were determined by measuring the amount of polyanionic material reacting with 1,9-dimethylmethylene blue (DME) as detected by absorbance at 525 nm, using shark chondroitin sulfate as a standard. The DME blue dye-binding solution was prepared by dissolving 16 mg of DME blue in a solution containing 0.304% glycine, 0.23% NaCl, 9.5 mM HCl, pH=3.0 with A525 equaling 0.31. […]

In data set [2] the test system is IL-1β-stimulated GAG release, bovine chondrocyte pellets / ARC tissues. Briefly: chondrocyte pellet culture model: GAG degradation. Particulars: for GAG Release: Pellet Assay. Format: cell-based. The text has this: (§2) Calf articular cartilage was obtained from the knee joints of eight to twelve month old animals and was processed within twenty-four hours after sacrifice. After removal of muscle and ligament, the cartilage was kept moist using phosphate buffer solution (PBS) to prevent tissue dehydration, and was aseptically peeled off from subchondral bone with a scalpel, and the cartilage pieces were further minced into smaller pieces (˜0.3-0.5×˜0.2-0.5 cm cubes). […] Chondrocytes were then enzymatically isolated from the tissue by incubation for overnight at 37° C. with gentle agitation in 0.2% collagenase in Dulbecco's modified eagle media (DMEM). After removal of tissue debris by filtration through cell strainer and the residual collagenase by 3× wash in PBS, cells were finally resuspended at a density of 2.5×10^6 cells/ml in chondrocyte medium. A 1 ml aliquot of the cell suspension was dispensed into either a 15 ml Falcon centrifuge tube or a 96 deep-well plate and centrifuged at 2000×g for five minutes. The chondrocyte pellets were incubated at 37° C. in a humidified atmosphere of 5% CO2 for two to three weeks with a medium change every other day.
(§3) As an alternative to using calf articular cartilage, a commercial Alginate Recovered Chondrocytes (ARC) system was also used (Articular Engineering, LLC (Northbrook, Ill.)). Use of the commercial system cut down on labor and time in producing chondrocyte pellet. This system produced cartilaginous tissue in vitro using bovine chondrocytes. The first step consisted of culturing chondrocytes in alginate under conditions optimal for the formation of a cell-associated matrix (CM). The second step allowed these cells with their CM, after recovery, to rapidly form and become integrated into a solid mass of cartilage on a porous insert within two weeks. This tissue is rich in cells surrounded by a cell-associated matrix that is degraded rapidly when the cells are exposed to IL-1. ARC tissues in 3 mm punches at delivery were first dispensed into a 96 deep-well plate, one punch per well, for compound treatment. The subsequent procedures were the same as those used for the chondrocyte pellets.
(§4) Chondrocyte pellets were washed once with 1 ml of Chondrocyte Stimulation Medium and equilibrated in the same medium at room temperature for fifteen to thirty minutes. Compounds were dissolved in H2O, Ethanol or dimethyl sulfoxide (DMSO) (10^−2 M) according to suppliers' instructions and further diluted with Chondrocyte Stimulation Medium to the required concentrations. DMSO concentrations in the culture media should not exceed 1%; this concentration of DMSO has no effect on cartilage proteoglycan metabolism in response to cytokines.
[…] At the end of the incubation, media and pellets were harvested and frozen for further analysis. Pellets were also fixed as needed in 4% (w/v) paraformaldehyde in PBS for histology analysis.
Glycosaminoglycan (GAG) levels in the culture media were determined by measuring the amount of polyanionic material reacting with 1,9-dimethylmethylene blue (DME) as detected by absorbance at 525 nm, using shark chondroitin sulfate as a standard. The DME blue dye-binding solution was prepared by dissolving 16 mg of DME blue in a solution containing 0.304% glycine, 0.23% sodium chloride (NaCl), 9.5 mM hydrochloric acid (HCl), pH=3.0 with absorbance at 525 equal to 0.31. Proteoglycans and proteoglycan metabolites in chondrocyte pellet were released by digesting the pellet with 125 μg/ml of papain in 0.1 M PBS, pH 6.0, 5 mM cysteine, 5 mM ethylene-diamine-tetra-acetic acid disodium salt (Na2EDTA) at 50° C. for overnight. Results are reported as either micrograms of GAG per milliliter or percent of total GAG released into culture medium.

The test system of data set [3] is injured cartilage explants. Format: cell-based.
Source text: as §1

Another data set deals with chondrocytes. Format: cell-based.
Source text: as §2, §3, §4
(§5) The pellets were first treated with compounds at desired concentrations at 37° C. for one hour and then incubated for three to five days in the absence or presence of 10 ng/ml of IL-1β. At the end of the incubation, media and pellets were harvested and frozen for further analysis. Pellets were also fixed as needed in 4% (w/v) paraformaldehyde in PBS for histology analysis.
The LDH activity was determined colorimetrically in an enzymatic test based on the conversion of lactic acid to pyruvate in the presence of chromagenic substrate tetrazolium salt INT that was reduced to formazan.

For data set [4], the system named is IL-1β-stimulated PGE2 synthesis, bovine chondrocyte pellets / ARC tissues. Briefly: chondrocyte pellet culture model: PGE2. The class given is cell-based. As to conditions: for PGE2 Inhibition: Pellet Assay.
Source text: as §2, §3, §4, §5
Prostaglandin E2 (PGE2) was measured with a STAT-Prostaglandin E2 EIA ELISA kit (Cayman Biochemicals). This assay is based on the competition between PGE2 from 50 μl samples and a PGE2-alkaline phosphatase conjugate for a limited amount of PGE2 monoclonal antibody in a reaction volume of 150 μl at room temperature for one hour. The antibody-PGE2 complex bound to a goat polyclonal anti-mouse IgG that had been previously attached to the well. After washing to remove any unbound reagents, para-nitrophenyl phosphate (pNPP) was added to the well. The product of this enzymatic reaction absorbs strongly at 412 nm. Because of the large range in response to IL-1β and other cytokines, PGE2 values were converted to log scale prior to doing t-tests.

The subject of data set [5] is IL-1β-stimulated NO production, bovine chondrocyte pellets / ARC tissues. Nature of the data set: chondrocyte pellet culture model: total nitrite/nitrate (NO). Format: cell-based. Particulars: Pellet Assay.
Source text: as §2, §3, §4, §5
Nitrate/Nitrite levels were measured using the Griess reaction (Green L. C. et al., “Analysis of Nitrate, Nitrite, and [15N]nitrate in Biological Fluids,” Anal. Biochem. 126: 131-138 (1982)) with aNitrate/Nitrite Colorimetric Assay Kit (Cayman Chemicals), the contents of which are incorporated herein by reference. The assay involved a simple two-step process. The first step involved conversion of nitrate in 50 μl of culture medium to nitrite utilizing nitrate reductase in a reaction volume of 100 μl at room temperature for two hours. The second step involved the addition of 50 μl of both Griess Reagent 1 and 2, which converted nitrite into a deep purple azo compound in ten minutes. Photometric measurement of the absorbance at 540 or 550 nm due to this azo chromophore accurately determined nitrite concentration. […]

Data set [6] deals with PG release, arthritic joint tissues. As to conditions: 10^−5 moles/liter or 10^−7 moles/liter; cited from earlier work.

Bounds are passed on as bounds.

The term inhibition denotes the share of the control response that was lost under treatment. A lower inhibition goes with a response near the control.

As for `CN1C(C(=O)Nc2ccccn2)=C(O)c2ccccc2S1(=O)=O` [Piroxicam, reference compound], the “GAG, inhibition of degradation/release” value in data set [1] (injured cartilage explants, inflammatory conditions) was “No effect”. The “GAG Release” value in data set [2] was “No effect”.

`CO[C@H]1C[C@@H]2CC[C@@H](C)[C@@](O)(O2)C(=O)C(=O)N2CCCC[C@H]2C(=O)O[C@H]([C@H](C)C[C@@H]2CC[C@@H](O)[C@H](OC)C2)CC(=O)[C@H](C)/C=C(\C)[C@@H](O)[C@@H](OC)C(=O)[C@H](C)C[C@H](C)/C=C/C=C/C=C/1C` [Rapamycin, reference compound]: in data set [3], the “cytotoxicity (LDH, words)” value is given as “little cytotoxicity”. In data set [1] (Bos taurus, at 0.01 μM), this molecule returned an inhibition at 0.01 µM of 84%. Further, the “cytotoxicity to chondrocytes (LDH, words)” value with chondrocytes was “little toxicity”.

For the molecule `O=C(O)c1cc(O)c2c(c1)C(=O)c1cccc(O)c1C2=O` [Rhein, reference compound], the “cytotoxicity (LDH, words)” value in data set [3] is recorded as “tolerant”. Also, the “lowest concentration inhibiting proteoglycan degradation” value in data set [2] (10 ng/ml IL-1β, five days) is no more than 0.035 µM. Also, the “PGE2 synthesis” value in data set [4] (diacerein at 5.4 μM, rhein at 0.35 μM, 10 ng/ml IL-1β) is reported as “no effect”.

On to `CC(C(=O)O)c1ccc(C(=O)c2ccccc2)s1` (stereo not shown) [Tiaprofenic Acid, reference compound], for which the “GAG Release” value in data set [2] was “No effect”.

With `Cc1ccc(C(=O)c2ccc(CC(=O)O)n2C)cc1` [Tolmetin, reference compound], the “GAG Release” value in data set [2] was “No effect”. Also, the “NO Inhibition” value in data set [5] is “No effect”.

Consider `CC1(C)O[C@@H]2[C@@H](CO[C@@]3(COS(N)(=O)=O)OC(C)(C)O[C@@H]23)O1` [Topramax, reference compound], for which, in data set [2], the “GAG Release” value is reported as “No effect”. Further, in data set [4], the “PGE2 Inhibition” value is on record as “No effect”. Further, the “NO Inhibition” value in data set [5] is “No effect”.

Take `O=C(O)Cc1ccccc1Nc1c(Cl)cccc1Cl` [diclofenac]: the “PG release from arthritic joint tissues” value in data set [6] is on record as “significantly inhibited”.

As to `COc1ccc2c(c1)c(CC(=O)O)c(C)n2C(=O)c1ccc(Cl)cc1` [indomethacin], the “PG release from arthritic joint tissues” value in data set [6] is given as “significantly inhibited”.

As to Madecassoside, in data set [2], the “GAG Release” value is reported as “No effect”. The “PGE2 Inhibition” value in data set [4] is reported as “No effect”. Moreover, the “NO Inhibition” value in data set [5] was “No effect”.

(Values after patent US8986696B2, “Trans-capsular administration of p38 map kinase inhibitors into orthopedic joints” (DePuy Mitek, Inc., priority 2007, dated 2015).)
